Data on eleven compounds can be found in patent US9212130B2, “Heterocyclic derivative and pharmaceutical composition comprising the same” (SHIONOGI & CO., LTD., priority 2010, dated 2015).

Data set [1] concerns the target human P2X3 receptor (Homo sapiens (Human), UniProt P56373). In words: Evaluation of human P2X3 receptor inhibitory activity (ATP-induced Fluo-3 fluorescence, FDSS 3000). The data set is classed as cell-based. Conditions: C6BU-1 cell transfected with human P2X3 receptor gene. An outline of the steps:
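Human P2X3 inhibition read as ATP-evoked Fluo-3 calcium fluorescence; compound preincubated, then 50 nM ATP solution (concentration as dispensed) added and fluorescence followed 3 min. Response taken as peak-to-baseline fluorescence ratio per well; IC50 derived from concentration–response.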

In data set [2] the target is T1, CYP3A4 (Homo sapiens (Human), UniProt P08684). Description: CYP3A4 fluorescent MBI test. The format is in vitro ADME. The conditions noted are these: pre-reaction time 0 or 30 minutes; substrate 7-BFC; CYP3A4 expressed in Escherichia coli. How it is done:
The CYP3A4 fluorescent MBI test is a test of investigating enhancement of CYP3A4 inhibition of a compound by a metabolism reaction, and the test is performed using, as CYP3A4 enzyme expressed in Escherichia coli and employing, as an index, a reaction in which 7-benzyloxytrifluoromethylchmarin (BFC) is debenzylated by the CYP3A4 enzyme to produce a metabolite, 7-hydroxytrifluoromethylchmarin (HFC) emitting fluorescent light.
The reaction conditions were as follows: substrate, 5.6 μmol/L 7-BFC; pre-reaction time, 0 or 30 minutes; reaction time, 15 minutes; reaction temperature, 25° C.
An enzyme in a K-Pi buffer (pH 7.4) and a test drug solution as a pre-reaction solution were added to a 96-well plate at the composition of the pre-reaction, a part of it was transferred to another 96-well plate so that it was 1/10 diluted by a substrate in a K-Pi buffer, NADPH as a co-factor was added to initiate a reaction as an index (without preincubation) and, after a predetermined time of a reaction, acetonitrile: 0.5 mol/L Tris (trishydroxyaminomethane)=4:1 was added to stop the reaction. In addition, NADPH was added to a remaining preincubation solution to initiate a preincubation (with preincubation) and, after a predetermined time of a preincubation, a part was transferred to another plate so that it was 1/10 diluted with a substrate and a K-Pi buffer to initiate a reaction as an index, After a predetermined time of a reaction, acetonitrile: 0.5 mol/L Tris (trishydroxyaminomethane)=4:1 was added to stop the reaction. For the plate on which each index reaction had been performed, a fluorescent value of 7-HFC which is a metabolite was measured with a fluorescent plate reader. (Ex=420 nm, Em=535 nm).
Addition of only DMSO which is a solvent dissolving a drug to a reaction system was adopted as a control (100%), remaining activity (%) was calculated at each concentration of a test drug added as the solution, and IC50 was calculated by reverse-presumption by a logistic model using a concentration and an inhibition rate. When a difference between IC50 values is 5 or more, this was defined as (+) and, when the difference is 3 μmol/L or less, this was defined as (−).

Data set [3] concerns the target CYP2C9 (Homo sapiens (Human), UniProt P11712). In words: CYP inhibition test, tolbutamide methyl-hydroxylation. The data set is classed as in vitro ADME. The conditions noted are these: pooled human hepatic microsome; 100 μmol/L tolbutamide; given as 'five kinds'. The procedure: (§1) Using commercially available pooled human hepatic microsome, and employing, as markers, 7-ethoxyresorufin O-deethylation (CYP1A2), tolbutamide methyl-hydroxylation (CYP2C9), mephenyloin 4′-hydroxylation (CYP2C19), dextromethorphan O-demethylation (CYP2D6), and terfenedine hydroxylation as typical substrate metabolism reactions of human main five ([…] enzyme forms (CYP1A2, 2C9, 2C19, 2D6, 3A4), an inhibitory degree of each metabolite production amount by a test compound was assessed.
(§2) The reaction conditions were as follows: substrate, 0.5 μmol/L ethoxyresorufin (CYP1A2), 100 μmol/L tolbutamide (CYP2C9), 50 μmol/L S-mephenitoin (CYP2C19), 5 μmol/L dextromethorphan (CYP2D6), 1 μmol/L terfenedine (CYP3A4); reaction time, 15 minutes; reaction temperature, 37° C.; enzyme, pooled human hepatic microsome 0.2 mg protein/mL; test drug concentration, 1.0. 5.0, 10, 20 μmol/L (four points).
(§3) Each five kinds of substrates, human hepatic microsome, or a test drug in 50 mmol/L Hepes buffer as a reaction solution was added to a 96-well plate at the composition as described above. NADPH, as a cofactor was added to initiate metabolism reactions as markers and, after the incubation at 37° C. for 15 minutes, a methanol/acetonitrile=1/1 (v/v) solution was added to stop the reaction. After the centrifugation at 3000 rpm for 15 minutes, resorufin (CYP1A2 metabolite) in the supernatant was quantified by a fluorescent multilabel counter and tributamide hydroxide (CYP2CP metabolite), mephenyloin 4′ hydroxide (CYP2C19 metabolite), […], and terfenadine alcohol (CYP3A4 metabolite) were quantified by LC/MS/MS.
(§4) Addition of only DMSO being a solvent dissolving a drug to a reaction system was adopted as a control (100%), remaining activity (%) was calculated at each concentration of a test drug added as the solution and IC50 was calculated by reverse presumption by a logistic model using a concentration and an inhibition rate.

The target of data set [4] is CYP1A2 (Homo sapiens (Human), UniProt P05177). In words: CYP inhibition test, 7-ethoxyresorufin O-deethylation. Conditions: pooled human hepatic microsome; 0.5 μmol/L ethoxyresorufin; given as 'five kinds'. The format is in vitro ADME. The procedure: as §1, §2, §3, §4
A short description of data set [5]: Solubility test. The format is physicochemical. The conditions noted are these: artificial intestinal juice (phosphate buffer) with 1% DMSO, 25 °C, other biorelevant, kinetic from dmso stock, artificial intestinal juice in pH 8.8, 25 degrees Celsius for 16 hours. The procedure: The solubility of a compound was determined under a condition in which 1% DMSO was added. 10 mmol/L compound solution was prepared using DMSO, and then 6 μL of the compound solution was added to 594 μL of artificial intestinal juice in […] (to 250 mL of 0.2 mol/L potassium dihydrogen phosphate reagent solution was added 118 mL of 0.2 mol/L NaOH reagent solution and water to provide a final volume of 1000 mL). After standing at 25 degrees Celsius for 16 hours, the mixed solution was filtrated with suction. The filtrate was diluted twice with methanol/water (1/1) and then a concentration in the filtration was measured with HPLC or LC/MS/MS by the absolute calibration method.

Data set [6] has as its target T1, CYP3A4. Description: CYP inhibition test, terfenedine hydroxylation. The conditions noted are these: pooled human hepatic microsome; 1 μmol/L terfenedine; given as 'five kinds'. The data set is classed as in vitro ADME. The procedure: as §1, §2, §3, §4
For data set [7], the target named is CYP2C19 (Homo sapiens (Human), UniProt P33261). In words: CYP inhibition test, mephenyloin 4'-hydroxylation. The format is in vitro ADME. Conditions: pooled human hepatic microsome; 50 μmol/L S-mephenitoin; given as 'five kinds'. The procedure:
as §1, §2, §3, §4

In data set [8] the target is CYP2D6 (Homo sapiens (Human), UniProt P10635). In words: CYP inhibition test, dextromethorphan O-demethylation. Conditions: pooled human hepatic microsome; 5 μmol/L dextromethorphan; given as 'five kinds'. The data set is classed as in vitro ADME. How it is done:
as §1, §2, §3, §4

The nature of data set [9]: Bioavailability (BA) test. The data set is classed as in vivo. The conditions noted are these: plasma; Mice or SD rats; oral 0.3 to 30 mg/kg vs intravenous 0.5 to 10 mg/kg; from AUCs. How it is done: Materials and Methods for Experiment of BA
• (1) Animals: Mice or SD rats were used • (2) Breeding conditions: Mice or SD rats were allowed to freely take solid food and sterilized tap water. • (3) Dose and grouping: orally or intravenously administered at a predetermined dose; grouping was as follows (Dose depends on the compound) Oral administration: 0.3 to 30 mg/kg (n=2 to 3) Intravenous administration: 0.5 to 10 mg/kg (n=2 to 3) • (4) Preparation of dosing solution: for oral administration, in a solution or a suspension state; for intravenous administration, in a solubilized state • (5) Administration method: in oral administration, forcedly administer into ventriculus with oral probe; in intravenous administration, administer from caudal vein with a needle-equipped syringe • (6) Evaluation items: blood was collected over time, and the plasma concentration of drug was measured by LC/MS/MS • (7) Statistical analysis: regarding the transition of the plasma concentration of the present compound, the area under the plasma concentration-time curve (AUC) was calculated by non-linear least squares program WinNonlin (Registered trade name), and the bioavailability (BA) was calculated from the AUCs of the oral administration group and intravenous administration group

The nature of data set [10]: Metabolism stability test (pooled human hepatic microsomes). The data set is classed as in vitro ADME. Conditions: human liver microsomes 0.5 mg protein/mL; 37° C., 30 minutes; 1 mmol/L NADPH; compound concentration 0.5 μmol/L. The procedure:
Using commercially available pooled human hepatic microsomes, a test compound was reacted for a constant time, a remaining rate was calculated by comparing a reacted sample and an unreacted sample, thereby, a degree of metabolism in liver was assessed.
A reaction was performed (oxidative reaction) at 37° C. for 0 minute or 30 minutes in the presence of 1 mmol/L NADPH in 0.2 mL of a buffer (50 mmol/L tris-HCl pH 7.4, 150 mmol/L potassium chloride, 10 mmol/L magnesium chloride) containing 0.5 mg protein/mL of human liver microsomes. After the reaction, 50 μL of the reaction solution was added to 100 μL of a methanol/acetonitrile 1/1 (v/v), mixed and centrifuged at 3000 rpm for 15 minutes. The test compound in the supernatant was quantified by LC/MS/MS, and a remaining amount of the test compound after the reaction was calculated, letting a compound amount at 0 minute reaction time to be 100%.
On the technique in general: Liver microsomes are vesicles of endoplasmic reticulum, rich in cytochrome P450 enzymes.

Sequence of human P2X3 receptor (P56373 whole entry): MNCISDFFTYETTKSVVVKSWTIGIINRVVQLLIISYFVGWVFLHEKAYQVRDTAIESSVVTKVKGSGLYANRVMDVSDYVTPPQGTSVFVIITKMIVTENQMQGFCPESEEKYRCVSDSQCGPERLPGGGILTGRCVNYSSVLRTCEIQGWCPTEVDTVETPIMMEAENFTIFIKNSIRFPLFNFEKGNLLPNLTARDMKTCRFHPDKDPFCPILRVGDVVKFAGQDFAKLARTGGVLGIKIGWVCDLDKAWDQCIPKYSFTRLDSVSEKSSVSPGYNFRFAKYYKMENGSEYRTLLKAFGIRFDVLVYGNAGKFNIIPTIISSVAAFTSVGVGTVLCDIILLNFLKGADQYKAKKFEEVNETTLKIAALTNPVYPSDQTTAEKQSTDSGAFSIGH
Sequence of CYP2C19 (P33261 whole entry): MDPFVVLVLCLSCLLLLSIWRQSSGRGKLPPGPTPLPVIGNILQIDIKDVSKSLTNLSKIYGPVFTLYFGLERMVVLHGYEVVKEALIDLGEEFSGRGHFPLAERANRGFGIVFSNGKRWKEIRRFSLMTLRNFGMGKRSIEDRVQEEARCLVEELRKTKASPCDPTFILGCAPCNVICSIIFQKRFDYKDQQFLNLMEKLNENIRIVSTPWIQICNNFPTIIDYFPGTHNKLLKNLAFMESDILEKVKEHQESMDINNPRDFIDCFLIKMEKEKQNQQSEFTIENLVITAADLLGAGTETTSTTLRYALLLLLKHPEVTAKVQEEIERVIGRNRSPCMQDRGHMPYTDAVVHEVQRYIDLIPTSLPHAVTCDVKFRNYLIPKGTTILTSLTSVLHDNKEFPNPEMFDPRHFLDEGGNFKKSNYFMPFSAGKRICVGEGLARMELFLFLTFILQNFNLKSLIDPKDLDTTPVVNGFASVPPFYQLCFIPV
Sequence of CYP2C9 (P11712 whole entry): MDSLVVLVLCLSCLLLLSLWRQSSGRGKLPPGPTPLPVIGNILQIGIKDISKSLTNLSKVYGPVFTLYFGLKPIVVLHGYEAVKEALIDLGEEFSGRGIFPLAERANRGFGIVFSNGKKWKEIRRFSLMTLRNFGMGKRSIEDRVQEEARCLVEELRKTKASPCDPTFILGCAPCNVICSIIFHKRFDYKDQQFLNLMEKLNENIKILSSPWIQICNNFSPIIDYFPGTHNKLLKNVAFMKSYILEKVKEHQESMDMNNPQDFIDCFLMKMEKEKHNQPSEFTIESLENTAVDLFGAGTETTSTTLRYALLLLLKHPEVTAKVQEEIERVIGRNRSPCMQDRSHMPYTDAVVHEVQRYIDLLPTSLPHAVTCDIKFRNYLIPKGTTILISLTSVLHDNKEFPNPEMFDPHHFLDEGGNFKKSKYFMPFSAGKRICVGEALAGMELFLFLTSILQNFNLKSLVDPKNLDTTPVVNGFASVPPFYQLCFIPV
Sequence of CYP1A2 (P05177 whole entry): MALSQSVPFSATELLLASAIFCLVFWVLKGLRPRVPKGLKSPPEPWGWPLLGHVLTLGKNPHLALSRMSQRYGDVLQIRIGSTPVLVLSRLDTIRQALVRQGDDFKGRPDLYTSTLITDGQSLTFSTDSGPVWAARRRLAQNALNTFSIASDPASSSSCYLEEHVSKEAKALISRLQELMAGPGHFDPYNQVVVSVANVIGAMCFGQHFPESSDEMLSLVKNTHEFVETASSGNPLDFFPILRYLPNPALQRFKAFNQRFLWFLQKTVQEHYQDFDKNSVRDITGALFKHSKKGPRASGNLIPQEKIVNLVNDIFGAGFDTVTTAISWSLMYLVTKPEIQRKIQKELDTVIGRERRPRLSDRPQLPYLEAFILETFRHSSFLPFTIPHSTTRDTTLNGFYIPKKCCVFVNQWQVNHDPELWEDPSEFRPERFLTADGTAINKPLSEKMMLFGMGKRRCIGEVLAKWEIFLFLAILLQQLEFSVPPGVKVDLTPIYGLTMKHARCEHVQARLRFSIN
Sequence of CYP2D6 (P10635 whole entry): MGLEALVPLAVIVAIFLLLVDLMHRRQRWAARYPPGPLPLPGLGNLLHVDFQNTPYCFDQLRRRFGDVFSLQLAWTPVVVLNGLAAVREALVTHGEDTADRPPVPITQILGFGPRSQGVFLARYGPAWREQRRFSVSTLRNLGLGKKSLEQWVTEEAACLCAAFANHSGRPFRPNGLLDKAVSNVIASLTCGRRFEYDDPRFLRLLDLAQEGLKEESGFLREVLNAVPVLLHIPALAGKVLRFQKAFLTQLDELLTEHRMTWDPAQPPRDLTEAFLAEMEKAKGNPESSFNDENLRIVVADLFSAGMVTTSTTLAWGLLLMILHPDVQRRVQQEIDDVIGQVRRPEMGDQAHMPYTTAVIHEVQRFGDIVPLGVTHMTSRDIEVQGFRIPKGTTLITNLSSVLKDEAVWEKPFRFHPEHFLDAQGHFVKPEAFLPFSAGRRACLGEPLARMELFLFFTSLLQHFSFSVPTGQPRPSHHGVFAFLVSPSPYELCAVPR
T1 sequence (P08684 whole entry): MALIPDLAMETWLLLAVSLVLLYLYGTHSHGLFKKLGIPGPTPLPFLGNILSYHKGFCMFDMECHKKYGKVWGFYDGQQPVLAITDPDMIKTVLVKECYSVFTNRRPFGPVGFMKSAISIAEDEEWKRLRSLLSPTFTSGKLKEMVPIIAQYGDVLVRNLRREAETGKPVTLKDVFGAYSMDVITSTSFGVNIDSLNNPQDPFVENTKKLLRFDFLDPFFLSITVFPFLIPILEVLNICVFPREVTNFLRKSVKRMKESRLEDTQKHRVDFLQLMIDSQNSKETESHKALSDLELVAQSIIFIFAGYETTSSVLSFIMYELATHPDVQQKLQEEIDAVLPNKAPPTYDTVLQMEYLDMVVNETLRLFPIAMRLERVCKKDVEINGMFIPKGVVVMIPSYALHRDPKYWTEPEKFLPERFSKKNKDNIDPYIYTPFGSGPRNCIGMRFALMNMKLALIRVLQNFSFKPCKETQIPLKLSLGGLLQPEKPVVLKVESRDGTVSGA

Usually IC50 stands for the concentration that inhibits the measured activity by half. Read a high IC50 as weaker potency in that assay. In general, solubility refers to the concentration that dissolves in the medium under given conditions. High values mean a readily soluble substance, low ones a poorly soluble substance. For the compound `O=C(O)c1cncc(Oc2ccc(Nc3ncc(NC(=O)C4CCOCC4)c(=O)n3Cc3ccc(Cl)cc3)cc2)c1` [I-305], the IC50 in data set [1] was 0.004 µM; in data set [3] it was over 20 µM; in data set [4] it was over 20 µM; in data set [6], over 20 µM; in data set [7] it was over 20 µM; in data set [8] it was over 20 µM. The IC50 difference in data set [2] was under 3 µM. The compound also came in with a solubility at 16 h in [5] of over 50 µM.

For orientation: bioavailability means the share of a dose that reaches the circulation, judged against a reference dose that is usually intravenous. For `CC(C)Oc1ccc(Nc2cc(=O)n(CC(C)(C)C(=O)O)c(=O)n2Cc2ccc(Cl)cc2)cc1F` [I-021], in data set [1], the 50% inhibitory concentration (IC50) is 0.019 µM. This compound also yielded a bioavailability in [9] of 49.1%.

Consider `CC(C)Oc1ccc(Nc2ncc(NC(=O)NC3CCOCC3)c(=O)n2Cc2ccc(Cl)cc2)cc1F` [I-289], for which the IC50 in data set [1] came to 0.007 µM. Further, the remaining rate in data set [10] is reported as 89%.

For the compound `CC(C)Oc1ccc(Nc2nc(=O)c(C(=O)NC3CCOCC3)cn2Cc2ccc(Cl)cc2)cc1F` [I-241], the IC50 in data set [1] was 0.031 µM; in data set [3], over 20 µM; in data set [4], over 20 µM; in data set [6], over 20 µM; in data set [7] it was over 20 µM; in data set [8] it was over 20 µM. In addition, the remaining rate in [10] is 88%.

In data set [1], `O=C(O)c1cccc(Oc2ccc(Nc3ncc(NC(=O)C4CCOCC4)c(=O)n3Cc3ccc(Cl)cc3)cc2)c1` [I-359] returned an IC50 of 0.002 µM. In data set [2], the IC50 difference was under 3 µM. The remaining rate in [10] turned out to be 101%.

Turning to `Cc1nc2ccc(Nc3cc(=O)n(CCCC(=O)O)c(=O)n3Cc3ccc(Cl)cc3)cc2s1` [I-354], the IC50 in data set [1] is 0.094 µM; in data set [3], over 20 µM; in data set [4], over 20 µM; in data set [6] it was over 20 µM; in data set [7] it was over 20 µM; in [8] it was over 20 µM. The same compound came in with an IC50 difference in data set [2] of under 3 µM.

Consider `Cc1nc2ccc(Nc3nc(=O)c(C(=O)NC4CCOCC4)cn3Cc3ccc(Cl)cc3)cc2s1` [I-286], for which, in [1], the IC50 was found to be 0.008 µM. Moreover, in [9], the bioavailability stood at 41.7%.

In data set [1], `Cc1ncc(Oc2ccc(Nc3ncc(NC(=O)C4CCOCC4)c(=O)n3Cc3ccc(Cl)cc3)cc2)cc1F` [I-313] showed an IC50 of 0.003 µM. This compound also returned a bioavailability in [9] of 28.5%.

In the case of `CCOC(=O)c1cn(Cc2ccc(Cl)cc2)c(Nc2ccc(OC(C)C)c(F)c2)nc1=O` [I-131, 1-(4-chlorobenzyl)-2-(3-fluoro-4-isopropoxyphenylamino)-5-(ethoxycarbonyl)pyrimidine-4(1H)-one], the remaining rate in data set [10] is on record as 92%.

Consider `Cc1cc(Nc2cc(=O)n(C[C@H](C)C(=O)O)c(=O)n2Cc2ccc(Cl)cc2)ccc1OC(C)C` [I-215], for which the concentration for half-maximal inhibition (IC50) in [1] was 0.024 µM. The bioavailability in data set [9] was found to be 49.7%.

For the compound `CCn1c(=O)cc(Nc2ccc(Oc3cncc(C(=O)O)c3)cc2)n(Cc2ccc(Cl)cc2)c1=O` [I-315], the IC50 in data set [1] turned out to be 0.006 µM. Moreover, the IC50 difference in [2] was under 3 µM. For the same compound, the remaining rate in data set [10] amounted to 105%.
